Data reported in US20090028943A1, “PHARMACEUTICAL COMPOSITIONS” (priority 2005, published 2009).

Key:
[1] = tested on: VEGF-stimulated endothelial cell proliferation (HUVEC); experiment: HUVEC assay, VEGF-stimulated proliferation; assay type: cell-based; conditions: Homo sapiens
[2] = tested on: basal endothelial cell proliferation (HUVEC); experiment: HUVEC assay, basal proliferation; assay type: cell-based; conditions: Homo sapiens
Calu-6 tumour xenograft = experiment: in vivo solid tumour model; conditions: once-daily oral, 28 days
[3] = stability of AZD2171 (hydrolysis, oxidation); assay type: physicochemical
Description: In order to counteract the plasticity of a drug such as AZD2171 a person skilled in the art would typically try to modify the material's properties with the addition of a complementary excipient such as a brittle filler. However this can limit the drug loading that can be achieved in a formulation, i.e. the percentage of active ingredient therein, and can lead to very large tablets which are difficult to swallow. […] Initial test formulations of AZD2171 were therefore limited to the use of two […] fillers namely lactose and mannitol. The test formulations comprised: […]

range of models = conditions: once-daily oral administration; cited from earlier work

COc1cc2c(Oc3ccc4[nH]c(C)cc4c3F)ncnc2cc1OCCCN1CCCC1 [AZD2171, 4-(4-fluoro-2-methyl-1H-indol-5-yloxy)-6-methoxy-7-(3-(pyrrolidin-1-yl)propoxy)quinazoline]
IC50 [1]: 0.4 ± 0.2 nM | IC50 [2]: > 500 nM | inhibition of growth of Calu-6 tumour xenograft (Calu-6 tumour xenograft; 1.5 mg/kg/day): 49% | inhibition of growth of Calu-6 tumour xenograft (Calu-6 tumour xenograft; 3 mg/kg/day): 69% | inhibition of growth of Calu-6 tumour xenograft (Calu-6 tumour xenograft; 6 mg/kg/day): 91% | compatibility with brittle filler dibasic calcium phosphate dihydrate [3]: showed hydrolysis | stability ([3]; degradation by hydrolysis and oxidation): relatively poor stability | anti-tumour activity in a range of models (range of models): broad-spectrum anti-tumour activity
